The text below walks through data of patent publication US8592611B2, “Trioxane dimer sulfur compounds” (The Johns Hopkins University, priority 2008, dated 2013).

Assay [1] has as its system chloroquine-sensitive P. falciparum (NF54). Briefly: in vitro antimalarial activity, [3H]hypoxanthine incorporation. The assay is classed as cell-based. The settings on record: Plasmodium falciparum. From the text: To determine the antimalarial effect of the disclosed trioxane sulfur dimer compounds of Formula I, screening assays may be performed against chloroquine-sensitive P. falciparum (NF54). Using the methods described below, the IC50 values of these compounds may be determined.
Antimalarial activity may be determined by measuring the incorporation of [^3H]hypoxanthine by the methods of DesJardins and Milhous with the following modifications, see Desjardins, R. E.; Canfield, C. J.; Haynes, J. D.; Chulay, J. D., Antimicrob. Agents Chemother., 16:710 (1979); Milhous, W. K.; Weatherly, N. F.; Bowdre, J. H.; Desjardins, R., Antimicrob. Agents Chemother., 27:525 (1985). […]
Stock solutions (approximately 2.5 mg/mL of HPLC-purified or recrystallized test compound) are prepared in dimethyl sulfoxide (DMSO; Sigma-Aldrich #27,043-1). […] Cells may be harvested (Brandel MB-48R) onto GF-C glass filters (Brandel), and the filters washed five times with 3 mL water per sample spot, dried under a heat lamp, and counted (Beckman Model LS-6500) in scintillation cocktail (ICN Cytoscint).
Decays per minute (dpm) values may be downloaded and analyzed (Power Macintosh 7200/90; Microsoft Excel 5.0), to yield the mean and standard deviation at each drug concentration. […]

A further assay has as its system P388 leukemia. The settings on record: NCI Report on NSC 369397, tested on 25 Oct. 1983; cited from earlier work.
The subject of assay [2] is P. vivax and P. falciparum. The settings on record: 2099 cases of malaria (P. vivax and P. falciparum about 3:1), different dosage forms; cited from earlier work.
Assay [3] has as its system human HeLa cervical cancer cells. The settings on record: human HeLa cervical cancer cells in vitro; cited from earlier work.

Take `C[C@@H]1CC[C@H]2[C@@H](C)C(=O)O[C@@H]3O[C@]4(C)CC[C@@H]1[C@]32OO4` [artemisinin]: half-maximal inhibition in assay [1] (IC50) was put at 0.0077 µM. Moreover, the “activity against P388 leukemia” value in the assay on P388 leukemia was “inactive”. In assay [2], the clinical outcome is on record as “clinical cure of all patients”.
Regarding `C[C@@H]1CC[C@H]2[C@@H](C)C(O)O[C@@H]3O[C@]4(C)CC[C@@H]1[C@]32OO4` (stereo partly shown) [dihydroartemisinin], in assay [3], the IC50 is 5 to 10 µM.
